Laboratory results reported in patent US20220162610A1, “NOVEL RNA TRANSCRIPT” (PTC Therapeutics, Inc., priority 2020, published 2022).

Assays:
HTT protein = HTT protein electrochemiluminescence (ECL) assay in HD patient fibroblasts, 96 h; format: cell-based, human; conditions: for HTT protein level: fibroblasts derived from HD patients, 96 h
Method: Human fibroblasts derived from a homozygous patient with HD (GM4857) were cultured for 96 hours in the presence of test compounds (in 0.5% DMSO) or controls at 37° C. in a humidified 5% CO2 atmosphere. After 96 hours, cells were lysed and frozen. HTT protein levels were measured in lysates as described below. Compounds that decreased HTT protein levels relative to DMSO control were further tested in a dose response assay.
For analysis in the electrochemiluminescence (ECL) assays, test compounds were serially diluted 3-fold in 100% DMSO (Sigma) to generate a 7-point concentration curve. A solution of test compound (500 nL, 200× in DMSO) was added to each test well with Acoustic Transfer System (EDC Biosystems); final concentration of DMSO was 0.5%. Fibroblasts were seeded in 96-well flat-bottomed plates (Thermo Fisher) at 4×10^3 cells/well in 100 μl of culture medium containing the test compound or DMSO vehicle control and incubated for 96 hours (37° C., 5% CO2, 100% relative humidity). After removal of the supernatant, cells were lysed in 50 μL of 1×LB11 extraction buffer (50 mM Tris (pH 7.4), 300 mM NaCl, 10% [w/v] glycerol, 3 mM EDTA, 1 mM MgCl2, 20 mM glycerophosphate, 25 mM NaF, 1% Triton X-100), containing a Complete™ protease inhibitor cocktail (Roche Diagnostics) with shaking at 4° C. for 30 minutes; the plates were then stored at −20° C.
Meso Scale Discovery® 96-well plates (MSD®) were coated overnight at 4° C. with primary antibodies in phosphate-buffered saline (PBS; 30 μl/well). The plates were washed three times with 0.05% Tween-20 in 1×PBS (PBS-T; 200 μl/well) then blocked (100 μl/well; 5% bovine serum albumin [BSA] in PBS-T) for 5-6 hours at room temperature (RT) with shaking. Plates were then washed three times with PBS-T. Cell lysates were transferred to the antibody coated plates (25 μl/well) and incubated with shaking overnight at 4° C. After removal of the lysates, the plates were washed three times with PBS-T, and 25 μl of detection antibody in 1% BSA, PBS-T was added to each well and incubated with shaking for 1 hour at room temperature. After three washes with PBS-T, 25 μl of Sulfo-Tag secondary antibody (MSD®; 0.25 μg/ml in 1% BSA, PBS-T) was added to each well and incubated with shaking for 1 hour at RT. After washing three times with PBS-T, 150 μl of read buffer T with surfactant (MSD®) was added to each empty well and the plate was imaged on the SI 6000 imager (MSD®) according to manufacturers' instructions for 96-well plates. Primary capture antibodies included: anti-polyglutamine-expanded HTT mouse monoclonal antibody (mAb) clone MW1 (1 μg/mL; Developmental Studies Hybridoma Bank); anti-HTT MAB2166 mAb (1 μg/mL; Millipore); anti-human KRAS rabbit polyclonal antibody (1 μg/mL; Thermo Fisher Scientific). Detection antibodies included: Huntingtin (D7F7) XP® Rabbit mAb (0.25 μg/ml; Cell Signalling Technology®); anti-hKRAS mouse mAb (0.25 μg/ml; LSBIO).

HTT mRNA = experiment: RT-qPCR quantification of HTT mRNA in HD patient fibroblasts, 24 h; format: cell-based, human; conditions: fibroblasts derived from HD patients
Method: Test compounds were serially diluted 3-fold in 100% DMSO to generate a 7-point concentration curve. A solution of test compound (500 nl, 200× in DMSO) was added to each test well with Acoustic Transfer System. Fibroblasts were seeded in 96-well flat-bottomed plates (Thermo Fisher Scientific) at 1×10^4 cells/well in 100 μl of culture medium containing the test compound or DMSO vehicle control and incubated for 24 hours (37° C., 5% CO2, 100% relative humidity). After removal of the supernatant, cells were lysed in RNA lysis buffer (1M Tris-HCL pH 7.4, 5M NaCl, 10% IGEPAL®CA-630; 50 μL/well) for 1 minute at RT, before 50 μL of chilled nuclease free water was added to each well; plates were then transferred immediately onto ice before storing at −80° C. overnight.
Cell lysates were assayed by quantitative reverse transcriptase polymerase chain reaction (RT-qPCR) to measure mRNA levels of HTT and glyceraldehyde 3-phosphate dehydrogenase (GAPDH) in the presence or absence of the test compound.
A reverse transcriptase quantitative polymerase chain reaction (RT-qPCR) reaction mixture of primers and probe sets for HTT and GAPDH was prepared according to TABLE III. […]

Question: What does the source list for `CCN1CCC(c2cc(C)c3nc(-c4ccc5nn(C)cc5c4)cc(=O)n3c2)CC1` [HTT-D1]?
Answer: HTT protein level (HTT protein): dose-dependent decrease; amount of HTT mRNA (HTT mRNA): dose-dependent decrease

Question: How did the HTT protein level (HTT protein) turn out when `CC1(C)CC(Oc2ccc(-c3ccc(-c4ccnc(O)c4)cc3O)nn2)CC(C)(C)N1` [HTT-C1] was run?
Answer: dose-dependent decrease

Question: What about the “wild type and mutant HTT protein expression” value (HTT protein; fibroblasts, 96-hour treatment) of the same compound?
Answer: lowered HTT protein expression from both alleles

Question: And the “amount of HTT mRNA” value (HTT mRNA)?
Answer: dose-dependent decrease
